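Cultured in 96-well plates, cells were exposed to test compound for 48 hours across five concentrations. GI50: concentration for 50% inhibition of growth.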 The source made the active and inactive calls. No stated cut-off is given here; in the data, active = GI50 up to about 1.1 µM and inactive = higher.
Columns and labels:
Experiment in all cases: NCI anticancer screen, dose series, 48 h
NCI-H460 = system: NCI-H460
NCI-H23 = system: NCI-H23
SF-295 = system: SF-295
OVCAR-8 = system: OVCAR-8
SW-620 = system: SW-620
786-0 = system: 786-0
OVCAR-4 = system: OVCAR-4
SK-OV-3 = system: SK-OV-3
DMS-114 = system: DMS-114
HOP-62 = system: HOP-62
SF-539 = system: SF-539
UACC-257 = system: UACC-257
LOX IMVI = system: LOX IMVI
CCRF-CEM = system: CCRF-CEM
NCI-H226 = system: NCI-H226
M19-MEL = system: M19-MEL
TK-10 = system: TK-10
A498 = system: A498
IGROV-1 = system: IGROV-1
RPMI-8226 = system: RPMI-8226
SNB-78 = system: SNB-78
U-251 = system: U-251
OVCAR-3 = system: OVCAR-3
SNB-19 = system: SNB-19
UO-31 = system: UO-31
SF-268 = system: SF-268
SK-MEL-28 = system: SK-MEL-28
ACHN = system: ACHN
NCI-H522 = system: NCI-H522
KM12 = system: KM12
HL-60 = system: HL-60
A549 = system: A549
HCT-15 = system: HCT-15
KM-20L2 = system: KM-20L2
K562 = system: K562
HCT-116 = system: HCT-116
UACC-62 = system: UACC-62
RXF 393 = system: RXF 393
Malme-3M = system: Malme-3M
COLO 205 = system: COLO 205
DLD-1 = system: DLD-1
HOP-92 = system: HOP-92
SK-MEL-2 = system: SK-MEL-2
SN12C = system: SN12C
SNB-75 = system: SNB-75
MOLT-4 = system: MOLT-4
EKVX = system: EKVX
CAKI-1 = system: CAKI-1
HT-29 = system: HT-29
OVCAR-5 = system: OVCAR-5
DMS-273 = system: DMS-273
SK-MEL-5 = system: SK-MEL-5
HCC 2998 = system: HCC 2998
HOP-18 = system: HOP-18
LXFL 529 = system: LXFL 529

**Q.** Which GI50 (NCI-H460) does the source give for `O=C(/C=C/c1ccccc1O)c1ccccc1O` here?
**A.** > 100 µM (inactive)

**Q.** And the GI50 (NCI-H23)?
**A.** 76.2 µM (inactive)

**Q.** And the GI50 (SF-295)?
**A.** 51.6 µM (inactive)

**Q.** What about the GI50 (OVCAR-8) of the same compound?
**A.** > 100 µM (inactive)

**Q.** What about the GI50 (SW-620) of the same compound?
**A.** > 100 µM (inactive)

**Q.** What about the GI50 (786-0) of the same compound?
**A.** > 100 µM (inactive)

**Q.** And the GI50 (OVCAR-4)?
**A.** > 100 µM (inactive)

**Q.** And the GI50 (SK-OV-3)?
**A.** > 100 µM (inactive)

**Q.** What about the GI50 (DMS-114) of the same compound?
**A.** 16.7 µM (inactive)

**Q.** And the GI50 (HOP-62)?
**A.** > 100 µM (inactive)

**Q.** And the GI50 (SF-539)?
**A.** > 100 µM (inactive)

**Q.** What about the GI50 (UACC-257) of the same compound?
**A.** > 100 µM (inactive)

**Q.** What about the GI50 (LOX IMVI) of the same compound?
**A.** > 100 µM (inactive)

**Q.** And the GI50 (CCRF-CEM)?
**A.** 5.74 µM (inactive)

**Q.** And the GI50 (NCI-H226)?
**A.** 58.9 µM (inactive)

**Q.** What about the GI50 (M19-MEL) of the same compound?
**A.** > 100 µM (inactive)

**Q.** What about the GI50 (TK-10) of the same compound?
**A.** > 100 µM (inactive)

**Q.** What about the GI50 (A498) of the same compound?
**A.** > 100 µM (inactive)

**Q.** And the GI50 (IGROV-1)?
**A.** > 100 µM (inactive)

**Q.** What about the GI50 (RPMI-8226) of the same compound?
**A.** 40 µM (inactive)

**Q.** What about the GI50 (SNB-78) of the same compound?
**A.** > 100 µM (inactive)

**Q.** And the GI50 (U-251)?
**A.** > 100 µM (inactive)

**Q.** What about the GI50 (OVCAR-3) of the same compound?
**A.** > 100 µM (inactive)

**Q.** What about the GI50 (SNB-19) of the same compound?
**A.** > 100 µM (inactive)

**Q.** What about the GI50 (UO-31) of the same compound?
**A.** > 100 µM (inactive)

**Q.** And the GI50 (SF-268)?
**A.** > 100 µM (inactive)

**Q.** What about the GI50 (SK-MEL-28) of the same compound?
**A.** > 100 µM (inactive)

**Q.** And the GI50 (ACHN)?
**A.** > 100 µM (inactive)

**Q.** And the GI50 (NCI-H522)?
**A.** > 100 µM (inactive)

**Q.** And the GI50 (KM12)?
**A.** > 100 µM (inactive)

**Q.** And the GI50 (HL-60)?
**A.** > 100 µM (inactive)

**Q.** And the GI50 (A549)?
**A.** > 100 µM (inactive)

**Q.** What about the GI50 (HCT-15) of the same compound?
**A.** 35.9 µM

**Q.** And the GI50 (KM-20L2)?
**A.** > 100 µM (inactive)

**Q.** And the GI50 (K562)?
**A.** 19.8 µM (inactive)

**Q.** And the GI50 (HCT-116)?
**A.** 78 µM (inactive)

**Q.** What about the GI50 (UACC-62) of the same compound?
**A.** > 100 µM (inactive)

**Q.** What about the GI50 (RXF 393) of the same compound?
**A.** > 100 µM (inactive)

**Q.** What about the GI50 (Malme-3M) of the same compound?
**A.** > 100 µM (inactive)

**Q.** And the GI50 (COLO 205)?
**A.** > 100 µM (inactive)

**Q.** What about the GI50 (DLD-1) of the same compound?
**A.** > 100 µM (inactive)

**Q.** What about the GI50 (HOP-92) of the same compound?
**A.** 46.7 µM (inactive)

**Q.** And the GI50 (SK-MEL-2)?
**A.** 80.9 µM (inactive)

**Q.** What about the GI50 (SN12C) of the same compound?
**A.** > 100 µM (inactive)

**Q.** What about the GI50 (SNB-75) of the same compound?
**A.** > 100 µM (inactive)

**Q.** What about the GI50 (MOLT-4) of the same compound?
**A.** 18.7 µM (inactive)

**Q.** And the GI50 (EKVX)?
**A.** > 100 µM (inactive)

**Q.** What about the GI50 (CAKI-1) of the same compound?
**A.** > 100 µM (inactive)

**Q.** What about the GI50 (HT-29) of the same compound?
**A.** > 100 µM (inactive)

**Q.** And the GI50 (OVCAR-5)?
**A.** > 100 µM (inactive)

**Q.** What about the GI50 (DMS-273) of the same compound?
**A.** > 100 µM (inactive)

**Q.** What about the GI50 (SK-MEL-5) of the same compound?
**A.** > 100 µM (inactive)

**Q.** And the GI50 (HCC 2998)?
**A.** > 100 µM (inactive)

**Q.** Which GI50 (NCI-H460) does the source give for `O=c1nc2sc3ccc4ccccc4c3n2nc1O` here?
**A.** 39.3 µM (inactive)

**Q.** And the GI50 (NCI-H23)?
**A.** 71.1 µM (inactive)

**Q.** What about the GI50 (SF-295) of the same compound?
**A.** 59.4 µM (inactive)

**Q.** What about the GI50 (OVCAR-8) of the same compound?
**A.** 94.6 µM (inactive)

**Q.** What about the GI50 (SW-620) of the same compound?
**A.** 79.4 µM (inactive)

**Q.** And the GI50 (786-0)?
**A.** > 10 µM (inactive)

**Q.** What about the GI50 (OVCAR-4) of the same compound?
**A.** 28.8 µM (inactive)

**Q.** What about the GI50 (SK-OV-3) of the same compound?
**A.** > 100 µM (inactive)

**Q.** And the GI50 (DMS-114)?
**A.** 75.2 µM (inactive)

**Q.** And the GI50 (HOP-62)?
**A.** 23.8 µM (inactive)

**Q.** What about the GI50 (SF-539) of the same compound?
**A.** > 100 µM (inactive)

**Q.** And the GI50 (CCRF-CEM)?
**A.** 40.1 µM (inactive)

**Q.** And the GI50 (NCI-H226)?
**A.** 30.5 µM (inactive)

**Q.** And the GI50 (TK-10)?
**A.** > 100 µM (inactive)

**Q.** What about the GI50 (IGROV-1) of the same compound?
**A.** 67 µM (inactive)

**Q.** And the GI50 (RPMI-8226)?
**A.** > 10 µM (inactive)

**Q.** And the GI50 (SNB-78)?
**A.** 70.3 µM (inactive)

**Q.** And the GI50 (U-251)?
**A.** 25.2 µM (inactive)

**Q.** And the GI50 (OVCAR-3)?
**A.** 55.2 µM (inactive)

**Q.** And the GI50 (SNB-19)?
**A.** 60.1 µM (inactive)

**Q.** What about the GI50 (SF-268) of the same compound?
**A.** 40.4 µM (inactive)

**Q.** What about the GI50 (HOP-18) of the same compound?
**A.** 71.3 µM (inactive)

**Q.** And the GI50 (SK-MEL-28)?
**A.** 40.4 µM (inactive)

**Q.** What about the GI50 (NCI-H522) of the same compound?
**A.** 53.7 µM (inactive)

**Q.** What about the GI50 (KM12) of the same compound?
**A.** > 100 µM (inactive)

**Q.** What about the GI50 (HL-60) of the same compound?
**A.** > 100 µM (inactive)

**Q.** What about the GI50 (A549) of the same compound?
**A.** > 100 µM (inactive)

**Q.** What about the GI50 (KM-20L2) of the same compound?
**A.** 25.3 µM (inactive)

**Q.** What about the GI50 (K562) of the same compound?
**A.** 44.5 µM (inactive)

**Q.** What about the GI50 (HCT-116) of the same compound?
**A.** 78.9 µM (inactive)

**Q.** What about the GI50 (UACC-62) of the same compound?
**A.** 46.7 µM (inactive)

**Q.** What about the GI50 (RXF 393) of the same compound?
**A.** 15.5 µM (inactive)

**Q.** And the GI50 (COLO 205)?
**A.** 62.4 µM (inactive)

**Q.** And the GI50 (LXFL 529)?
**A.** 68.1 µM (inactive)

**Q.** What about the GI50 (DLD-1) of the same compound?
**A.** 40.9 µM (inactive)

**Q.** And the GI50 (SN12C)?
**A.** 86.5 µM (inactive)

**Q.** And the GI50 (SNB-75)?
**A.** 41.1 µM (inactive)

**Q.** And the GI50 (MOLT-4)?
**A.** 57.4 µM (inactive)

**Q.** And the GI50 (EKVX)?
**A.** 60 µM (inactive)

**Q.** And the GI50 (HT-29)?
**A.** 47.9 µM (inactive)

**Q.** What about the GI50 (DMS-273) of the same compound?
**A.** 39.8 µM (inactive)

**Q.** And the GI50 (SK-MEL-5)?
**A.** 43.8 µM (inactive)

**Q.** And the GI50 (HCC 2998)?
**A.** 54.8 µM (inactive)
